Measurements reported in ChEMBL document CHEMBL1128064, “Discovery of L-740,515, a potent thienopyridine cysLT1 receptor (LTD4 receptor) antagonist” (Bioorg Med Chem Lett, 1995).

Columns and labels:
[1] = Clearance was estimated in two squirrel monkeys after iv administration at 5 mg/kg; assay type: ADME, organism-based; parameters: dose 5 mg/kg, route intravenous; conditions: in vivo
[2] = Bioavailability in squirrel monkey (dose 5 mg/kg); assay type: ADME, organism-based, Saimiri sciureus; conditions: in vivo
[3] = molecular target: T1, Cysteinyl leukotriene receptor 1 (Homo sapiens, UniProt Q9Y271); assay: Inhibition of binding of [ H]-LTD4 to DMSO differentiated U937 cell membranes; parameters: species or system U-937
T1 sequence (Q9Y271 whole entry): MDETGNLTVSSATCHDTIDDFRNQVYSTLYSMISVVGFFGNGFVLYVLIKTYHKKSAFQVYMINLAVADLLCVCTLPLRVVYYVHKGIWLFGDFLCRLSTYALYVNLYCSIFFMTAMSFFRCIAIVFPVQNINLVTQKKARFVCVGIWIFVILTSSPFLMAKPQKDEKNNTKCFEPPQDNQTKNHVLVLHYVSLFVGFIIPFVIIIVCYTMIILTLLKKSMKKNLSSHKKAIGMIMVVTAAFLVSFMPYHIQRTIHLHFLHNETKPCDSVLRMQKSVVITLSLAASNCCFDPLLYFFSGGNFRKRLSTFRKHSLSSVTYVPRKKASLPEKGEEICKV

[4] = Terminal half life of the compound.; assay type: ADME
[5] = molecular target: Cysteinyl leukotriene receptor 1 (Cavia porcellus); assay: Inhibition of binding of [3H]LTD4 to guinea pig lung membrane supplemented with 0.05% human serum albumin(HSA)
[6] = molecular target: Cysteinyl leukotriene receptor 1 (Cavia porcellus); assay: Inhibition of binding of [3H]LTD4 to guinea pig lung membrane
[7] = Compound was tested on PMN membranes using LTD4 binding assays; assay type: functional, Homo sapiens
[8] = Compound was tested on dU937 cell membranes using LTC4 binding assays; assay type: functional, Homo sapiens

Row | Compound | clearance [1] | bioavailability [2] | IC50 [3] | half-life [4] | IC50 [5] | IC50 [6] | IC50 [7] | IC50 [8]
1 | O=C(O)CC1(CS[C@H](CCc2ccccc2C(O)(C(F)(F)F)C(F)(F)F)c2cccc(/C=C/c3ccc4sc(Cl)c(Cl)c4n3)c2)CC1 | 0.9 mL/min/kg | 2% | 6.42 nM | 11 h | 1.21 nM | 4.12 nM | – | –
2 | CC(C)(O)c1ccccc1CC[C@@H](SCC1(CC(=O)O)CC1)c1cccc(/C=C/c2ccc3sc(F)c(F)c3n2)c1 | 1.61 mL/min/kg | 25% | – | 2.5 h | – | – | – | –
3 | CC(C)(O)c1ccccc1CC[C@@H](SCC1(CC(=O)O)CC1)c1cccc(/C=C/c2ccc3sc(Cl)cc3n2)c1 | 1.2 mL/min/kg | 31% | – | – | – | – | – | –
4 | O=C(O)CC1(CS[C@H](CCc2ccc(Br)cc2)c2cccc(/C=C/c3ccc4sc(Cl)c(Cl)c4n3)c2)CC1 | 1.6 mL/min/kg | 3% | 4.7 nM | 5.1 h | 1.03 nM | 1.95 nM | – | –
5 | O=C(O)CC1(CS[C@H](CCc2ccccc2Br)c2cccc(/C=C/c3ccc4sc(Cl)c(Cl)c4n3)c2)CC1 | 0.46 mL/min/kg | 3% | 2.43 nM | 8.8 h | 1.93 nM | 2.6 nM | – | –
6 | CC(C)(O)c1ccccc1CC[C@@H](SCC1(CC(=O)O)CC1)c1cccc(OCc2ccc3sc(Cl)c(Cl)c3n2)c1 | – | – | 2.01 nM | – | 2.2 nM | 0.42 nM | – | –
7 | CC(C)(O)c1ccccc1CC[C@@H](SCC1(CC(=O)O)CC1)c1cccc(/C=C/c2ccc3sccc3n2)c1 | – | – | 8.49 nM | – | 20.4 nM | 1.31 nM | – | –
8 | O=C(O)CC1(CS[C@H](CCc2ccccc2)c2cccc(/C=C/c3ccc4sc(Cl)c(Cl)c4n3)c2)CC1 | 1.8 mL/min/kg | 13% | 1.63 nM | 4 h | 0.37 nM | 0.34 nM | – | –
9 | CC(C)(O)c1ccccc1CC[C@@H](SCC1(CC(=O)O)CC1)c1cccc(/C=C/c2ccc3sc(Cl)c(Cl)c3n2)c1 | 0.57 mL/min/kg | 29% | 0.55 nM | 4.2 h | 0.34 nM | 0.89 nM | > 3000 nM | > 46000 nM
10 | O=C(O)CC1(CS[C@H](CCc2ccccc2C(F)(F)F)c2cccc(/C=C/c3ccc4sc(Cl)c(Cl)c4n3)c2)CC1 | 0.4 mL/min/kg | 1% | – | 6.1 h | – | – | – | –

More lines, now with the values ahead:

Row | clearance [1] | bioavailability [2] | IC50 [3] | half-life [4] | IC50 [5] | IC50 [6] | IC50 [7] | IC50 [8] | Compound
11 | 6.6 mL/min/kg | 35% | 0.38 nM | – | 0.2 nM | 0.56 nM | – | – | CC(C)(O)c1ccc(CC[C@@H](SCC2(CC(=O)O)CC2)c2cccc(/C=C/c3ccc4sc(Cl)c(Cl)c4n3)c2)cc1
12 | 2.6 mL/min/kg | 13% | 0.47 nM | – | 0.24 nM | 0.44 nM | – | – | O=C(O)CC1(CS[C@H](CCc2cccc(C3(O)CCC3)c2)c2cccc(/C=C/c3ccc4sc(Cl)c(Cl)c4n3)c2)CC1
13 | – | – | > 150 nM | – | > 150 nM | > 150 nM | – | – | CC(C)(O)c1ccccc1CC[C@@H](SCC1(CC(=O)O)CC1)c1cccc(COc2ccc3sc(Cl)c(Cl)c3n2)c1
14 | 1 mL/min/kg | 22% | 1.05 nM | – | 0.34 nM | 0.74 nM | – | – | O=C(O)CC1(CS[C@H](CCc2ccccc2C2(O)CCC2)c2cccc(/C=C/c3ccc4sc(Cl)c(Cl)c4n3)c2)CC1
15 | 4.7 mL/min/kg | 15% | 0.65 nM | 2 h | 0.29 nM | 0.58 nM | – | – | O=C(O)CC1(CS[C@H](CCc2ccc(C3(O)CCC3)cc2)c2cccc(/C=C/c3ccc4sc(Cl)c(Cl)c4n3)c2)CC1
16 | – | – | 15.7 nM | – | 9.12 nM | 10.9 nM | – | – | CC(C)(O)c1ccccc1CC[C@@H](SCC1(CC(=O)O)CC1)c1cccc(C2CC2c2ccc3sc(Cl)c(Cl)c3n2)c1 (some centres not stated)
17 | 0.39 mL/min/kg | 13% | 1.91 nM | – | 1.58 nM | 0.54 nM | – | – | CC(C)(O)c1ccccc1CC[C@@H](SCC1(CC(=O)O)CC1)c1cccc(/C=C/c2ccc3scc(Cl)c3n2)c1
18 | 1.4 mL/min/kg | 4% | 8.67 nM | – | 1.43 nM | 3.84 nM | – | – | O=C(O)CC1(CS[C@H](CCc2ccc(C(F)(F)F)cc2)c2cccc(/C=C/c3ccc4sc(Cl)c(Cl)c4n3)c2)CC1
19 | 3.5 mL/min/kg | – | 0.72 nM | – | 0.48 nM | 0.48 nM | – | – | O=C(O)CC1(CS[C@H](CCc2ccccc2CO)c2cccc(/C=C/c3ccc4sc(Cl)c(Cl)c4n3)c2)CC1
20 | 1.8 mL/min/kg | 5% | 2.16 nM | – | 0.65 nM | 1.09 nM | – | – | O=C(O)CC1(CS[C@H](CCc2ccc(F)cc2)c2cccc(/C=C/c3ccc4sc(Cl)c(Cl)c4n3)c2)CC1
